Literature values, collected in patent US8980870B2, “Solid telmisartan pharmaceutical formulations” (Boehringer Ingelheim International GmbH, priority 2002, dated 2015).

Details: physiological pH range of the gastrointestinal tract, between pH 1 to 7; both polymorphic forms A and B

- solubility in aqueous systems: very poor solubility
Structure (SMILES): CCCc1nc2c(C)cc(-c3nc4ccccc4n3C)cc2n1Cc1ccc(-c2ccccc2C(=O)O)cc1 [telmisartan, 4′-[2-n-propyl-4-methyl-6-(1-methylbenzimidazol-2-yl)benzimidazol-1-ylmethyl]biphenyl-2-carboxylic acid]
